From PubChem BioAssay (NCI)
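Values below derive from 48-hour exposures of cells grown in 96-well plates, with endpoints linearly interpolated between the two concentrations bracketing the appropriate inhibition level. Definition used: TGI = concentration required for complete inhibition of growth.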

Tests used:
Assay in all cases: inhibition of tumour cell growth, NCI panel, 48 h
HS 578T breast = test system: HS 578T breast
SNB-19 CNS = test system: SNB-19 CNS
CCRF-CEM leukemia = test system: CCRF-CEM leukemia
UACC-257 melanoma = test system: UACC-257 melanoma
SW-620 colon = test system: SW-620 colon
COLO 205 colon = test system: COLO 205 colon
KM12 colon = test system: KM12 colon
NCI-H460 lung = test system: NCI-H460 lung
CAKI-1 renal = test system: CAKI-1 renal
786-0 renal = test system: 786-0 renal
MCF7 breast = test system: MCF7 breast
NCI-H522 lung = test system: NCI-H522 lung
A549 NSCLC = test system: A549 NSCLC
IGROV1 ovarian = test system: IGROV1 ovarian
MDA-MB-435 = test system: MDA-MB-435
NCI-H23 lung = test system: NCI-H23 lung
HOP-62 NSCLC = test system: HOP-62 NSCLC
RXF 393 renal = test system: RXF 393 renal
SNB-75 CNS = test system: SNB-75 CNS

| SMILES | TGI (HS 578T breast) [µM] | TGI (SNB-19 CNS) [µM] | TGI (CCRF-CEM leukemia) [µM] | TGI (UACC-257 melanoma) [µM] | TGI (SW-620 colon) [µM] | TGI (COLO 205 colon) [µM] | TGI (KM12 colon) [µM] | TGI (NCI-H460 lung) [µM] | TGI (CAKI-1 renal) [µM] | TGI (786-0 renal) [µM] | TGI (MCF7 breast) [µM] | TGI (NCI-H522 lung) [µM] | TGI (A549 NSCLC) [µM] | TGI (IGROV1 ovarian) [µM] | TGI (MDA-MB-435) [µM] | TGI (NCI-H23 lung) [µM] | TGI (HOP-62 NSCLC) [µM] | TGI (RXF 393 renal) [µM] | TGI (SNB-75 CNS) [µM] |
| --- | --- | --- | --- | --- | --- | --- | --- | --- | --- | --- | --- | --- | --- | --- | --- | --- | --- | --- | --- |
| COc1ccc(C2CC(c3ccccc3)=Nc3c(-c4ccccc4)nnn32)cc1 (centres undefined) | > 100 | > 100 | > 100 | > 100 | > 100 | > 100 | > 100 | > 100 | > 100 | > 100 | > 100 | 69.3 | > 100 | > 100 | > 100 | > 100 | > 100 | – | – |
| c1cc(Sc2nc(Sc3ccncc3)nc(Sc3ccncc3)n2)ccn1 | > 100 | > 100 | > 100 | > 100 | > 100 | > 100 | > 100 | > 100 | > 100 | > 100 | > 100 | > 100 | > 100 | > 100 | > 100 | > 100 | > 100 | > 100 | – |
| O=C(O)CN1CCN2CCOCCOCCN(CC1)CCN(CC(=O)O)CC2 | > 100 | > 100 | > 100 | > 100 | > 100 | > 100 | > 100 | > 100 | > 100 | > 100 | > 100 | > 100 | > 100 | > 100 | > 100 | – | > 100 | – | > 100 |
| CC(C)=NN/C(=N\S(=O)(=O)c1ccc(C)cc1)Nc1ccc(Cl)cc1 | > 100 | > 100 | > 100 | > 100 | > 100 | > 100 | > 100 | > 100 | > 100 | > 100 | > 100 | > 100 | > 100 | > 100 | > 100 | > 100 | > 100 | – | – |
| CC(OC(C)(C)C)[C@H](NC(=O)OC(C)(C)C)C(=O)O (some centres undefined) | > 100 | > 100 | > 100 | > 100 | > 100 | > 100 | > 100 | > 100 | > 100 | > 100 | > 100 | > 100 | > 100 | > 100 | > 100 | > 100 | > 100 | – | – |
| CC1(C)O[C@@H]2[C@@H](COC(=O)c3ccccc3)C[C@@H](C#N)[C@@H]2O1 | > 100 | > 100 | > 100 | – | > 100 | > 100 | > 100 | > 100 | – | > 100 | > 100 | > 100 | > 100 | > 100 | > 100 | > 100 | > 100 | > 100 | > 100 |
| O=C1C(N2CCNCC2)=C(Cl)C(=O)c2ncccc21 | > 10 | > 10 | > 10 | > 10 | > 10 | > 10 | > 10 | > 10 | > 10 | > 10 | > 10 | – | > 10 | > 10 | > 10 | > 10 | > 10 | > 10 | > 10 |
| Cc1nc2ccc(S(=O)(=O)Nc3ccccc3)cc2c(=O)n1NC(=O)CNc1ccccc1 | > 100 | > 100 | > 100 | > 100 | > 100 | > 100 | > 100 | > 100 | > 100 | > 100 | > 100 | > 100 | > 100 | > 100 | > 100 | > 100 | > 100 | – | > 100 |
| CC(=O)NC(C)(C)C1CC=C(C)CC1 (centres undefined) | > 100 | > 100 | > 100 | > 100 | > 100 | > 100 | > 100 | > 100 | > 100 | > 100 | > 100 | – | > 100 | > 100 | > 100 | > 100 | > 100 | > 100 | > 100 |
| c1ccc(Cc2nc(Cc3n[nH]c(Cc4ccccc4)n3)n[nH]2)cc1 | > 100 | > 100 | > 100 | > 100 | > 100 | > 100 | > 100 | – | – | > 100 | > 100 | > 100 | > 100 | > 100 | > 100 | > 100 | > 100 | > 100 | > 100 |
